The record followed here is patent US20150322033A1, “ANTIBACTERIAL AGENT” (priority 2012, published 2015).

Several values for one entry are separate records, joined by “and”; a condition that tells them apart may be missing. Identical values can stand only once. Like-named read-outs stand apart in the source and are kept apart here.

Test [1] concerns the target T1, GyrA(S84L) + GyrB(wt) (Staphylococcus aureus, UniProt P20831, S84L).
T1 construct: made in house; host or cells: E. coli BL21(DE3)
The test can be described thus: DNA cleavage assay with mutant GyrA(S84L) and GyrB(wt). It counts as biochemical. The text has this:
E. coliBL21(DE3) (produced by Invitrogen) was transformed with pMAL-c2-gyrA mentioned above, with pMAL-c2-gyrB mentioned above, or with pMAL-c2-SAGAmut84 containing a mutant gyrA encoding the amino acid sequence of GyrA(wt) in which serine residue at the 84th position from the amino terminus is substituted with a leucine residue (see, Hiramatsu K., Igarashi M., Morimoto Y, Baba T., Umekita M., Akamatsu Y., Int. J. Antimicrob. Agents, 2012 June; 39(6), 478-85). To the culture medium of the resulting transformed Escherichia coli, 1 mM […] (produced by Wako Pure Chemical Industries) was added to induce expression of maltose-binding GyrA(wt), maltose-binding GyrB(wt), or maltose-binding mutant GyrA(S84L), and the bacterium was cultured overnight at 25° C. After completion of the culture, the cells were collected, and suspended in a buffer (20 mM Tris-HCl (pH 8.0), 200 mM sodium chloride, 1 mM ethylenediaminetetraacetic acid (EDTA), 1 mM dithiothreitol (DTT)), a protein extracting reagent (10× BugBuster (registered trademark), produced by Novagen) in a volume of 1/10 of the volume of the buffer, and 2.5 μL/10 mL of the buffer of Benzonase (registered trademark) nuclease (produced by Novagen) were added, the mixture was left standing at 25° C. for 30 minutes, and the cells were disrupted and lysed to obtain a disrupted cell suspension containing the maltose-binding GyrA(wt), maltose-binding GyrB(wt), or maltose-binding mutant GyrA(S84L).
Then, each disrupted cell suspension mentioned above was added to a column filled with an amylose resin covalently bound with maltose (produced by Novagen). A buffer (20 mM Tris-HCl (pH 8.0), 200 mM sodium chloride, 1 mM EDTA) containing 10 mM maltose was added to the column to elute the maltose-binding GyrA(wt), maltose-binding GyrB(wt), and maltose-binding mutant GyrA(S84L).
To each eluate, 4 units/1 mL of the eluate of protease (Factor Xa, produced by Amersham) was added, and the mixture was left standing at 25° C. for 3 hours and 30 minutes to cleave the maltose-binding proteins, GyrA(wt), GyrB(wt), and mutant GyrA(S84L) from the maltose-binding GyrA(wt), maltose-binding GyrB(wt), and maltose-binding mutant GyrA(S84L).
Then, GyrA(wt), GyrB(wt), and mutant GyrA(S84L) were concentrated by using an ultrafiltration unit (YM-50 Filter Unit, produced by Millipore).
The concentrated GyrA(wt), GyrB(wt), and mutant GyrA(S84L) were each suspended in a buffer (35 mM Tris-HCl (pH 7.5), 24 mM potassium chloride, 6 mM magnesium chloride, 1.8 mM spermidine, 0.36 mg/mL bovine serum albumin, 5 mM DTT, 50 volume % glycerol) at a concentration of 1 μg/μL for GyrA(wt), 2 μg/μL for GyrB(wt), or 1 μg/μL for mutant GyrA(S84L).
An assay was performed in the same manner as that of the cleavage of the plasmid DNA with GyrA(wt) and GyrB(wt) mentioned above, provided that 0.15 μL of an enzyme solution of mutant GyrA(S84L) and 0.2 μL of the enzyme solution of GyrB(wt) were added instead of […] of the enzyme solution of GyrA(wt) and 0.2 μL of the enzyme solution of GyrB(wt). In FIGS. 3 and 4, the symbols “S”, “L”, and “N” have the same meanings as those explained for FIGS. 1 and 2.
IC50 value of levofloxacin or apigenin was also calculated from the visualized images shown in FIGS. 3 and 4 in the same manner as that used for the calculation using the results shown in FIGS. 1 and 2.
The DNA cleavage assay was performed with M-246 in the same manner as that used in Example 4.

Test [2] relates to levofloxacin-susceptible Staphylococcus aureus strain MS5935-1. The test can be described thus: Emergence frequency of levofloxacin-resistant Staphylococcus aureus on agar plate medium. It counts as cell-based. The settings on record: for Emergence frequency of levofloxacin resistance mutation (mutations/genera): FALCOR. The text has this:
Emergence frequency of levofloxacin-resistant Staphylococcus aureus was examined in the presence or absence of apigenin by using a levofloxacin-susceptible Staphylococcus aureus strain according to the following method.
The levofloxacin-susceptible Staphylococcus aureus strain MS5935-1 (strain in which the 80th serine residue from the amino terminus of the wild-type topoisomerase IV encoded by parC is mutated with phenylalanine residue, see, Hiramatsu K., Igarashi M., Morimoto Y, Baba T., Umekita M., Akamatsu Y., Int. J. Antimicrob. Agents, 2012 June; 39(6), 478-85) was cultured overnight at 37° C. with shaking in 4 mL of TBS (produced by Dickinson). After completion of the culture, the cells were suspended in fresh TBS, and the cell suspension was adjusted to have an absorbance of 0.3 measured at 578 nm. Then, the cell suspension was diluted 10,000 times with TBS. This diluted cell suspension was inoculated (0.1 mL each) into ten test tubes containing 4 mL each of TBS, and preculture was carried out overnight at 37° C.
Levofloxacin was dissolved in sterilized water at a concentration of 40 mg/L. This solution of levofloxacin was added on plates in a volume of 1 mL/plate, and 9 mL of M-H (Mueller Hinton) Agar (produced by Becton, Dickinson and Company) was added to each plate. Five of such plates were prepared. […]
Number of the colonies formed on each agar plate medium after the culture of 2 days was counted. The emergence frequency of levofloxacin-resistant Staphylococcus aureus was calculated according to the following equation using the number of colonies and the number of bacterial cells inoculated onto each agar plate medium (CFU, colony forming unit). Further, from the calculated emergence frequency of the levofloxacin-resistant Staphylococcus aureus, emergence frequency of levofloxacin resistance mutation and 95% confidence interval (CI range) were calculated by using FALCOR (Fluctuation AnaLysis CalculatOR, http://www.keshaysingh.org/protocols/FALCOR.html, see, Hall B. M. et al., Bioinformatics., 2009, 25(12), 1564-5). […]

On to `O=c1cc(-c2ccc(O)cc2)oc2cc(O)cc(O)c12` [No. 7, 4′,5,7-Trihydroxyflavone], for which the “inhibitory activity against the mutant DNA gyrase” value in test [1] (FIG. 3 and 4) is given as “concentration-dependent inhibitory activity”. Also, the IC50 is ~29.6 µM and 29.6 µM in test [1] (IC50 (μg/mL) GyrA(S84L) + GyrB(wt), Example 4, Table 15, from ratio of cleaved DNA); about 29.6 µM in test [1] (IC50 mutant GyrA(S84L) and GyrB(wt), value in μM). For the same compound, the “Emergence frequency of levofloxacin resistance mutation, medium with levofloxacin and apigenin / medium with levofloxacin” value in test [2] (LVFX 4 mg/L, apigenin 32 mg/L) is 1/29. Further, the “Emergence frequency of levofloxacin resistance mutation (mutations/genera)” value in test [2] (agar plate medium with LVFX 4 mg/L and apigenin 32 mg/L) is on record as 0.05 × 10^−9 mutations/genera.
Consider `C[C@H]1COc2c(N3CCN(C)CC3)c(F)cc3c(=O)c(C(=O)O)cn1c23` [Levofloxacin, levofloxacin, reference compound], for which, in test [1] (Example 4, Table 15, from ratio of cleaved DNA, read-out: IC50 (μg/mL) GyrA(S84L) + GyrB(wt)), the IC50 is over 88.6 µM. In test [2] (agar plate medium with LVFX 4 mg/L, apigenin 0), the “Emergence frequency of levofloxacin resistance mutation (mutations/genera)” value is 1.45 × 10^−9 mutations/genera.
